Assay results from US10653667B2, “Drug for preventing, treating or preventing metastasis of giant cell tumor that occurs in bone or soft parts, chondrosarcoma, or osteosarcoma, local injection for arterial embolization, and artificial bone” (NIPPON CHEMIPHAR CO., LTD, priority 2013, dated 2020).
Where “and” joins values, the source holds several entries; their conditions need not be identical. Identical values can stand only once.

Tests used:
[1] = test system: PPARγ expression in giant cell tumor of bone (GCTB); test: PPARγ staining of operational excision sample of GCTB patient administered with zaltoprofen; format: in vivo, human; details: 3 tablets per day Soleton Tablet 80 for about 28 days
Method: An operational excision sample of a person who had been administered with 3 tablets per day of the zaltoprofen tablets, Soleton Tablet 80 (generic name: zaltoprofen, 80 mg, Nippon Chemiphar) for about 28 days for pain due to the tumor, and then subjected to the operation, and an operational excision sample of giant cell tumor of bone excised from a patient with giant cell tumor of bone not administered with zaltoprofen (case in which tumor was excised by usual surgical operation according to standard therapy) as a control were subjected to staining of PPARγ, and expression of PPARγ was analyzed by PCR. For PCR, Hs_PPARG_1_SGQuantiTect Primer Assay (200) (QT00029841) of QIAGEN was used. Observation was performed with a fluorescence microscope (BZ-9000) of Keyence (FIG. 11).

[2] = test system: cultured cells of pigmented villonodular synovitis (PVNS); test: Suppression of cell proliferation of PVNS cultured cells (CCK-8); format: cell-based, human; details: PVNS cells; drug at various concentrations; CCK-8 24 hours after addition
[3] = test system: cultured cells of human pigmented villonodular synovitis (PVNS); test: Tunel assay and caspase 3 staining of PVNS cultured cells; format: cell-based; details: zaltoprofen 400 μM or troglitazone 200 μM, compared with control
Method: Further, the aforementioned GCTB cultured cells of the case 1 mentioned above were cultured on chamber cover slide glass, and zaltoprofen was added at different concentrations (100, and 200 μM) 24 hours afterward. Then, 8 hours and 24 hours afterward, the cells were fixed with 4% paraformaldehyde, staining with caspase 3 and Tunel assay were performed, and presence or absence of apoptosis was analyzed. In the Tunel assay, fragmented DNAs produced in the process of apoptosis were detected by the TdT-mediated dUTP nick end labeling method (TUNEL). Observation was performed with a fluorescence microscope (BZ-9000) of Keyence, and positive images for each concentration were quantitatively observed (FIGS. 2 to 5).
Further, in the same manner as that of Example 1, the cultured cells of human giant cell tumor of tendon sheath (GCTT) and the cultured cells of human pigmented villonodular synovitis (PVNS) were subjected to staining with caspase 3 and Tunel assay, and presence or absence of apoptosis was analyzed (FIGS. 18 to 25).

[4] = test system: cells of giant cell tumor of tendon sheath (GCTT); test: Fat cell differentiation of GCTT cells (HCS LipidTOX Green); format: cell-based, human; details: zaltoprofen 400 μM, compared with control
Method: It has been reported that PPARγ is a transcription factor indispensable for fat cell differentiation. Therefore, the GCTB cultured cells of the aforementioned case 1 were cultured on chamber cover slide glass, and when they reached confluent, zaltoprofen was added to the cells at various concentrations (10, 50, and 100 μM). From 24 hours thereafter, the cells were cultured in a fat cell differentiation-inducing medium (STREMPRO Adipogenesis Differentiation Kit, Invitrogen) for 7 to 14 days, and differentiation into fat cells was analyzed with HCS Lipid TOX Green Neutral Lipid Stain (Invitrogen) (FIGS. 8 and 9).
It has been reported that PPARγ is a transcription factor indispensable for fat cell differentiation. Therefore, in the same manner as that of Example 3, zaltoprofen was added at a concentration of 400 μM to the cells of giant cell tumor of tendon sheath (GCTT) or cells of pigmented villonodular synovitis (PVNS), and differentiation into fat cells was analyzed (FIGS. 30 and 31). As a result, it was successfully confirmed that the positive images obtained with HCS LipidTOX Green increased in the zaltoprofen-added cells compared with the control.

[5] = test system: PPARγ expression in H-EMC-SS cells; test: PPARγ immunostaining of chondrosarcoma cell line H-EMC-SS; format: cell-based, human; details: zaltoprofen 200 μM, troglitazone 100 μM or pioglitazone 200 μM
SW1353 cells [6] = test: Proliferation of SW1353 cells cultured beforehand with or without GW9662; format: cell-based, human
Method: Cells of the human chondrosarcoma cell line, SW1353, were cultured in the same manner as that of Example 1 until they became sub-confluent, then, GW9662, which is an irreversible antagonist of PPARγ, was added to the cells at a final concentration of 1 μM, and the cells were cultured for 60 minutes. Then, zaltoprofen was added to the cells at various concentrations of 100, 200, 300, and 400 μM, color development was performed with Cell. Counting Kit-8 (CCK-8, Dojindo) 72 hours thereafter, absorbance was measured at 450 nm further 3 hours thereafter, and the result was compared with the absorbance observed with adding only DMSO not dissolving GW9662 (FIG. 68).

SW1353 cells [7] = test: Proliferation of SW1353 cells cultured beforehand with PPARγ siRNA or control siRNA; format: cell-based, human
[8] = test system: pigmented villonodular synovitis (PVNS); test: Curative effect of zaltoprofen (Soleton Tablet) on PVNS patients; format: in vivo, human
Method: Soleton Tablet 80 (generic name: zaltoprofen, 80 mg, Nippon Chemiphar) was administered to a patient with giant cell tumor of bone (GCTB), patient with giant cell tumor of tendon sheath (GCTT), or patient with pigmented villonodular synovitis (PVNS) at a dose of 3 tablets per day (one tablet was administered in the morning, at noon, and in the evening), and the tumor size was evaluated by MRI every several months.
PVNS patients were administered with 3 tablets per day (one tablet was administered in the morning, at noon, and in the evening) of Soleton Tablet 80 (generic name; zaltoprofen, 80 mg, Nippon Chemiphar). Four weeks after the start of the administration, the tumor size was evaluated by imaging based on simple Roentgen contrast method, X-ray CT, and MRI (nuclear magnetic resonance imaging). Then, the tumors were excised from patients for whom surgical operation was possible, administration of zaltoprofen was continued at a dose of 240 mg per day (one 80 mg tablet was administered at the time of breakfast, lunch, and supper), and the tumor size was evaluated by imaging based on simple Roentgen contrast method, X-ray CT, and MRI (nuclear magnetic resonance imaging) every 16 weeks. Also for patients for whom surgical operation was difficult, administration of 240 mg zaltoprofen per day (one 80 mg tablet was administered at the time of breakfast, lunch, and supper) was continued, and the tumor size was evaluated by imaging based on simple Roentgen contrast method, X-ray CT, and MRI (nuclear magnetic resonance imaging) every 8 weeks.

H-EMC-SS cells = details: inventors' earlier reports; cited from earlier work
[9] = recurrence of PVNS in the right knee (person; case b), after two months

## CC(C(=O)O)c1ccc2c(c1)CC(=O)c1ccccc1S2 (stereo not drawn) [zaltoprofen]
[1]
  fat cell differentiation in excision sample: fat cell differentiation could be confirmed
[1]; vs patient not administered
  PPARγ-expressing cells in excision sample: PPARγ-expressing cells could be confirmed
[2]
  suppression of cell proliferation (absorbance at 450 nm): cell proliferation was suppressed
[3]
  Tunel-positive ratio: increased
  caspase 3-positive ratio: increased
[4]
  positive images obtained with HCS LipidTOX Green (differentiation into fat cells): increased
[5]
  expression of PPARγ (PPARγ-positive images): expression of PPARγ could be confirmed
SW1353 cells [6]; SW1353, GW9662 1 μM, 60 minutes beforehand
  cell proliferation-suppressing action after preincubation with GW9662: markedly reduced by GW9662
SW1353 cells [6]; zaltoprofen 100, 200, 300, 400 μM, 72 hours
  suppression of proliferation of SW1353 cells: suppressed by zaltoprofen in a concentration-dependent manner
SW1353 cells [7]; 400 μM zaltoprofen, 24 hours
  suppression of proliferation of SW1353 cells: about 38%
SW1353 cells [7]; SW1353, PPARγ-siRNA 100 nM 48 hours, 400 μM zaltoprofen or 100 μM rosiglitazone
  cell proliferation-suppressing action when expression of PPARγ is suppressed by siRNA: substantially eliminated
[8]; PVNS case a, shoulder joint, about 50 weeks, 27.7 mm before
  diameter of PVNS after taking zaltoprofen: 7.9 mm
[8]; PVNS case c, right knee joint, about 35 weeks, 59.5 mm before
  diameter (major axis) of PVNS after taking zaltoprofen: 47.2 mm and 48.0 mm
[8]; PVNS cases a and b, score 70 before
  KPS score after taking zaltoprofen: 100
[8]; PVNS cases a, b, c, d, e, and f, no treatment except zaltoprofen
  change of PVNS: shrank
[8]; PVNS cases c and d, score 80 before
  KPS score after taking zaltoprofen: 90
[8]; PVNS patients
  new metastasis during the taking of zaltoprofen: any new metastasis of PVNS was not observed
[8]; PVNS patients subjected to ablative operation
  recurrence during the taking of zaltoprofen after ablative operation: no recurrence of PVNS could be confirmed
[8]; all the patients
  shrinkage of PVNS in patients who took zaltoprofen: shrinkage of PVNS could be confirmed in all the patients
[8]; among 11 PVNS cases for which the response rate was determined, 240 mg per day
  number of cases judged to be partial response (PR): one
[8]; cases of PVNS who took zaltoprofen
  cases in which the KPS score worsened: no case in which the KPS score worsened
[8]; human, in vivo
  response judgement of all the PVNS patients who took zaltoprofen: partial response (PR) or stable disease (SD)
[8]; recurrence of PVNS in the right knee (case i), 3 tablets per day, after three months
  MRI imaging effect: attenuation of the MRI imaging effect
[8]; recurrence of PVNS in the right knee (case i), after three months
  pain and knee-joint excursion: improvement was observed
[8]; [9]
  pain: improvement of pain
  tumor size by MRI: shrinkage of tumor
H-EMC-SS cells
  suppression of proliferation of H-EMC-SS cells: suppress proliferation
